Legend:
[1] = target: Serine/threonine-protein kinase 17A (Homo sapiens) (UniProt Q9UEE5); conditions: Compound concentration 1000.0 nM
[2] = target: Tyrosine-protein kinase Mer (Homo sapiens) (UniProt Q12866); conditions: Compound concentration 1000.0 nM
[3] = target: Serine/threonine-protein kinase Nek5 (Homo sapiens) (UniProt Q6P3R8); conditions: Compound concentration 1000.0 nM
[4] = target: Ribosomal protein S6 kinase alpha-6 (Homo sapiens) (UniProt Q9UK32); conditions: Compound concentration 1000.0 nM
[5] = target: Death-associated protein kinase 3 (Homo sapiens) (UniProt O43293); conditions: Compound concentration 1000.0 nM
[6] = target: Myotonin-protein kinase (Homo sapiens) (UniProt Q09013); conditions: Compound concentration 1000.0 nM
[7] = target: D(4) dopamine receptor (Homo sapiens) (UniProt P21917); conditions: Compound concentration 10.0 uM
[8] = target: Phosphorylase b kinase gamma catalytic chain, skeletal muscle/heart isoform (Homo sapiens) (UniProt Q16816); conditions: Compound concentration 1000.0 nM
[9] = target: Dual serine/threonine and tyrosine protein kinase (Homo sapiens) (UniProt Q6XUX3); conditions: Compound concentration 1000.0 nM
[10] = target: Serine/threonine-protein kinase MARK2 (Homo sapiens) (UniProt Q7KZI7); conditions: Compound concentration 1000.0 nM
[11] = target: Tyrosine-protein kinase Fes/Fps (Homo sapiens) (UniProt P07332); conditions: Compound concentration 1000.0 nM
[12] = target: Casein kinase I isoform gamma-3 (Homo sapiens) (UniProt Q9Y6M4); conditions: Compound concentration 1000.0 nM
[13] = target: SNF-related serine/threonine-protein kinase (Homo sapiens) (UniProt Q9NRH2); conditions: Compound concentration 1000.0 nM
[14] = target: Muscle, skeletal receptor tyrosine-protein kinase (Homo sapiens) (UniProt O15146); conditions: Compound concentration 1000.0 nM
[15] = target: Mitogen-activated protein kinase kinase kinase 12 (Homo sapiens) (UniProt Q12852); conditions: Compound concentration 1000.0 nM
[16] = target: Dual specificity mitogen-activated protein kinase kinase 2 (Homo sapiens) (UniProt P36507); conditions: Compound concentration 1000.0 nM
[17] = tested on: Phosphatidylinositol 4,5-bisphosphate 3-kinase catalytic subunit alpha isoform (Homo sapiens), P42336 [I800L]; conditions: Compound concentration 1000.0 nM
[18] = target: Testis-specific serine/threonine-protein kinase 3 (Homo sapiens) (UniProt Q96PN8); conditions: Compound concentration 1000.0 nM
[19] = target: Mitogen-activated protein kinase 6 (Homo sapiens) (UniProt Q16659); conditions: Compound concentration 1000.0 nM
[20] = target: Serine/threonine-protein kinase pim-3 (Homo sapiens) (UniProt Q86V86); conditions: Compound concentration 1000.0 nM
[21] = tested on: Mast/stem cell growth factor receptor Kit (Homo sapiens), P10721 [V559D]; conditions: Compound concentration 1000.0 nM
[22] = tested on: Tyrosine-protein kinase ABL1 (Homo sapiens), P00519 [F317L]; conditions: Compound concentration 1000.0 nM
[23] = target: Serine/threonine-protein kinase haspin (Homo sapiens) (UniProt Q8TF76); conditions: Compound concentration 1000.0 nM
[24] = target: Ribosomal protein S6 kinase alpha-2 (Homo sapiens) (UniProt Q15349); conditions: Compound concentration 1000.0 nM
[25] = target: Cyclin-dependent kinase 8 (Homo sapiens) (UniProt P49336); conditions: Compound concentration 1000.0 nM
[26] = target: Tyrosine-protein kinase Fyn (Homo sapiens) (UniProt P06241); conditions: Compound concentration 1000.0 nM
[27] = target: Receptor-interacting serine/threonine-protein kinase 2 (Homo sapiens) (UniProt O43353); conditions: Compound concentration 1000.0 nM
[28] = tested on: Tyrosine-protein kinase ABL1 (Homo sapiens), P00519 [Y253F]; conditions: Compound concentration 1000.0 nM
[29] = target: Mitogen-activated protein kinase kinase kinase 3 (Homo sapiens) (UniProt Q99759); conditions: Compound concentration 1000.0 nM
[30] = target: Serine/threonine-protein kinase Sgk3 (Homo sapiens) (UniProt Q96BR1); conditions: Compound concentration 1000.0 nM
[31] = target: Cyclin-dependent kinase 7 (Homo sapiens) (UniProt P50613); conditions: Compound concentration 1000.0 nM
[32] = target: Mitogen-activated protein kinase kinase kinase 9 (Homo sapiens) (UniProt P80192); conditions: Compound concentration 1000.0 nM
[33] = target: Serine/threonine-protein kinase MRCK gamma (Homo sapiens) (UniProt Q6DT37); conditions: Compound concentration 1000.0 nM
[34] = target: Tyrosine-protein kinase JAK1 (Homo sapiens) (UniProt P23458); conditions: Compound concentration 1000.0 nM
[35] = target: Tyrosine-protein kinase SYK (Homo sapiens) (UniProt P43405); conditions: Compound concentration 1000.0 nM
[36] = target: Homeodomain-interacting protein kinase 2 (Homo sapiens) (UniProt Q9H2X6); conditions: Compound concentration 1000.0 nM
[37] = target: Activin receptor type-1 (Homo sapiens) (UniProt Q04771); conditions: Compound concentration 1000.0 nM
[38] = target: Dual specificity protein kinase CLK4 (Homo sapiens) (UniProt Q9HAZ1); conditions: Compound concentration 1000.0 nM
[39] = target: Alpha-2C adrenergic receptor (Homo sapiens) (UniProt P18825); conditions: Compound concentration 10.0 uM
[40] = tested on: Epidermal growth factor receptor (Homo sapiens), P00533 [UNDEFINED MUTATION]; conditions: Compound concentration 1000.0 nM
[41] = target: Serine/threonine-protein kinase PRP4 homolog (Homo sapiens) (UniProt Q13523); conditions: Compound concentration 1000.0 nM
[42] = tested on: Epidermal growth factor receptor (Homo sapiens), P00533 [UNDEFINED MUTATION]; conditions: Compound concentration 1000.0 nM; remark: listed apart in the source
[43] = target: Tyrosine-protein kinase FRK (Homo sapiens) (UniProt P42685); conditions: Compound concentration 1000.0 nM
[44] = target: cAMP-dependent protein kinase catalytic subunit PRKX (Homo sapiens) (UniProt P51817); conditions: Compound concentration 1000.0 nM
[45] = target: Myosin-IIIa (Homo sapiens) (UniProt Q8NEV4); conditions: Compound concentration 1000.0 nM

Epidermal growth factor receptor (Homo sapiens), P00533 [UNDEFINED MUTATION], sequence (P00533 whole entry, looked up, change not shown): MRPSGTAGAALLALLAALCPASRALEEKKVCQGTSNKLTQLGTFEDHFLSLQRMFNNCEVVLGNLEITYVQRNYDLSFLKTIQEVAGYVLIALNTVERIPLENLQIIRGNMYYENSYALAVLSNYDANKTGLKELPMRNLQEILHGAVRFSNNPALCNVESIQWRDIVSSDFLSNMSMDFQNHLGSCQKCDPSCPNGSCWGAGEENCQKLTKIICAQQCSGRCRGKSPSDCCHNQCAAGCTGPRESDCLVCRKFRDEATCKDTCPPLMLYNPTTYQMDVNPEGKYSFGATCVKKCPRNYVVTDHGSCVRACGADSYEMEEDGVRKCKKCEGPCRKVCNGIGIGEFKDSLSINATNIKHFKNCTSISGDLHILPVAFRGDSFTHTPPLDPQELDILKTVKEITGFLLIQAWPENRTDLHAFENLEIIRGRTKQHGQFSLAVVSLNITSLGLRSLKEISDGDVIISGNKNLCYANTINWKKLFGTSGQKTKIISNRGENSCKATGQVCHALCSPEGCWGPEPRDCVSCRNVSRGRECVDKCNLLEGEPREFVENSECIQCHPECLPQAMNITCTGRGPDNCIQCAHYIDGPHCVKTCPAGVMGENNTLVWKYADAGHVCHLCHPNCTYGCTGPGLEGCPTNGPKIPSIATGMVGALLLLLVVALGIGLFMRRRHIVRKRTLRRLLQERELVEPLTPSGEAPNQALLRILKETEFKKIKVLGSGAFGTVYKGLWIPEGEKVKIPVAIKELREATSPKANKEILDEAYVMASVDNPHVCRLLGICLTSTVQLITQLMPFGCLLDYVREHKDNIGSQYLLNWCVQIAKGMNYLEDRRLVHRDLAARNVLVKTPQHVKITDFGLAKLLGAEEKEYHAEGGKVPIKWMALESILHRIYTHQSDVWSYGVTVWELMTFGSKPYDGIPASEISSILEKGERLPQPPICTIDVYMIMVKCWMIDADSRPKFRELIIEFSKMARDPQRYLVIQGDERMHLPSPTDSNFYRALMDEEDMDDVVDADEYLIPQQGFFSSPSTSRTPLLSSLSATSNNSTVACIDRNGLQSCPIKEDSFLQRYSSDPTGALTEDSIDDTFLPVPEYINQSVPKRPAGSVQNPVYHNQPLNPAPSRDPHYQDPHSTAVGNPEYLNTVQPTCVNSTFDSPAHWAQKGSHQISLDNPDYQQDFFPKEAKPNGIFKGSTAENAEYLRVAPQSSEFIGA
Testis-specific serine/threonine-protein kinase 3 (Homo sapiens), sequence (Q96PN8 whole entry): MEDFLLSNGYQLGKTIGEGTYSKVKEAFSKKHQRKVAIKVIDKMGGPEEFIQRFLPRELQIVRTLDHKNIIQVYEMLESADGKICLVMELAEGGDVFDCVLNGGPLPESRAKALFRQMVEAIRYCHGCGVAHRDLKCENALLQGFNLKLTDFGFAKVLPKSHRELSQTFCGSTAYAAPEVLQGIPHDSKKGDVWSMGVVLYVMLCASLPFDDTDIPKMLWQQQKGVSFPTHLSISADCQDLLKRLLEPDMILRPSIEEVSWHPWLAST
Myotonin-protein kinase (Homo sapiens), sequence (Q09013 whole entry): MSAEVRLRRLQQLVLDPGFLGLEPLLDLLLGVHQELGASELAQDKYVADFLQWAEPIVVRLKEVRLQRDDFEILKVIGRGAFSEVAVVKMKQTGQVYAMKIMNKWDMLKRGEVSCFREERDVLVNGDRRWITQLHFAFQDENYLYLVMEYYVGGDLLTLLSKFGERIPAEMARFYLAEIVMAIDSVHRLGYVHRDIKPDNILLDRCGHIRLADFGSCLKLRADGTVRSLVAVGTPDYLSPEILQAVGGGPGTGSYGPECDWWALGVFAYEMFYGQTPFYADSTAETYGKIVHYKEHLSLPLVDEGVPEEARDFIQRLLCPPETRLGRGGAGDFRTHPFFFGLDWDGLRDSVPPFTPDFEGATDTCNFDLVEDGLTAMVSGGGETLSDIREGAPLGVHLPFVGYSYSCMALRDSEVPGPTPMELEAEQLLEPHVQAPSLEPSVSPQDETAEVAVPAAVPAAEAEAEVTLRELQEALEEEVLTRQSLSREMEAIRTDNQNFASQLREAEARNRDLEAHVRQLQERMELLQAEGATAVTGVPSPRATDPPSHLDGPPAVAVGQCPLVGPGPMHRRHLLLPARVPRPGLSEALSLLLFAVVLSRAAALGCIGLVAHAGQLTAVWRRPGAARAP
Serine/threonine-protein kinase Sgk3 (Homo sapiens), sequence (Q96BR1 whole entry): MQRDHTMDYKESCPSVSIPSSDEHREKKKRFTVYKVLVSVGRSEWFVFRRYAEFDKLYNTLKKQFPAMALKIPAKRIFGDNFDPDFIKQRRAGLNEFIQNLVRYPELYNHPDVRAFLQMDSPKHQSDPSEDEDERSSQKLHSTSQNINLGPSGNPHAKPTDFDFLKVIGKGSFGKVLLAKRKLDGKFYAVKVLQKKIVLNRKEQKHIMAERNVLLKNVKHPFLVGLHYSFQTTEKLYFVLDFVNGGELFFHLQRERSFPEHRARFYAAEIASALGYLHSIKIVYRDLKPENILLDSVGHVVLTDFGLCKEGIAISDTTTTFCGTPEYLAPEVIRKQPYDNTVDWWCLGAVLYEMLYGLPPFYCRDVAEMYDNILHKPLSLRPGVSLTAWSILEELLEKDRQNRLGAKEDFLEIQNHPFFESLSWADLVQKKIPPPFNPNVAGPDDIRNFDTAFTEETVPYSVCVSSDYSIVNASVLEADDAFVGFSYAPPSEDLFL
Mitogen-activated protein kinase kinase kinase 9 (Homo sapiens), sequence (P80192 whole entry, looked up): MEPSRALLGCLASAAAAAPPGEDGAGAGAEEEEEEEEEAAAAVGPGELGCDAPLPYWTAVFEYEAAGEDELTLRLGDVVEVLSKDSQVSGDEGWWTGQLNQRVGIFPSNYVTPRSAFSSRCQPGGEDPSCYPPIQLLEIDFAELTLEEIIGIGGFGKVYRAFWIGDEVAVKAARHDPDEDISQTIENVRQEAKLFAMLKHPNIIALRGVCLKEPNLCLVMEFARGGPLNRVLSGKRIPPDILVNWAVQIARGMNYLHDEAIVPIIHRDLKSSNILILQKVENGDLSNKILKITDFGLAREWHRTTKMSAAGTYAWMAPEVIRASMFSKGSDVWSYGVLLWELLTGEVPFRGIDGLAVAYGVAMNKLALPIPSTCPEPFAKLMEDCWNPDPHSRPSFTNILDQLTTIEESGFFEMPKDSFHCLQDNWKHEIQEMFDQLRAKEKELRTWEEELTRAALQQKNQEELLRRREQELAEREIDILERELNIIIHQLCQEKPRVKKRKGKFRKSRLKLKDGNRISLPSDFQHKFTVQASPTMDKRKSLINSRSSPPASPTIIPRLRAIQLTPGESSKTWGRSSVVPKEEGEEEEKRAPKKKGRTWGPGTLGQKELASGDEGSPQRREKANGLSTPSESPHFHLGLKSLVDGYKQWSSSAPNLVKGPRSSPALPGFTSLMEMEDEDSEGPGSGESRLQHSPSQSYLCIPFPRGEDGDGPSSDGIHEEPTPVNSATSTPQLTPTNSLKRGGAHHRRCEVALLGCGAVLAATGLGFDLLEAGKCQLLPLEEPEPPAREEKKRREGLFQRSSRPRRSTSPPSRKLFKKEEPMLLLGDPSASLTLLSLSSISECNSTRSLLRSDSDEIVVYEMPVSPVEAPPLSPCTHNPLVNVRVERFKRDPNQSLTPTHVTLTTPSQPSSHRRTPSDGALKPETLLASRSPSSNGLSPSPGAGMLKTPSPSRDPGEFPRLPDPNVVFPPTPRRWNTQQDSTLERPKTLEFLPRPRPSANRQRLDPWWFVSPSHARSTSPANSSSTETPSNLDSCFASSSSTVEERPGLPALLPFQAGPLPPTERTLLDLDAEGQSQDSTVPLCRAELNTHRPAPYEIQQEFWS
Tyrosine-protein kinase Fyn (Homo sapiens), sequence (P06241 2-537 limits assumed): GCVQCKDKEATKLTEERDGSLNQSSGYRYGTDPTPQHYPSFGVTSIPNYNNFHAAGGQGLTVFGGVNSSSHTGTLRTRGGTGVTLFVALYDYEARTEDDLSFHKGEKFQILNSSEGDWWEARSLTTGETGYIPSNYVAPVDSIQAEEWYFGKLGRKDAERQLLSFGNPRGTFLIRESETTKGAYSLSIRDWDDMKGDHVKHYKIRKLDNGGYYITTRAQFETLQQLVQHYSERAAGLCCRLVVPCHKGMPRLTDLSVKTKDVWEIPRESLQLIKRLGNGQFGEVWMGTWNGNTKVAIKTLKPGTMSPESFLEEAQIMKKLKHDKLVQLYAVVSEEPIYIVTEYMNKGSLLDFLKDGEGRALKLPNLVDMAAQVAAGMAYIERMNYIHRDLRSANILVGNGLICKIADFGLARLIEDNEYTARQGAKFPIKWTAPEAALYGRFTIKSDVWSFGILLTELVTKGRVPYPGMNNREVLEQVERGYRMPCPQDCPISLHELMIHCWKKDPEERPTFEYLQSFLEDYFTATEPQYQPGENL
Serine/threonine-protein kinase 17A (Homo sapiens), sequence (Q9UEE5 whole entry): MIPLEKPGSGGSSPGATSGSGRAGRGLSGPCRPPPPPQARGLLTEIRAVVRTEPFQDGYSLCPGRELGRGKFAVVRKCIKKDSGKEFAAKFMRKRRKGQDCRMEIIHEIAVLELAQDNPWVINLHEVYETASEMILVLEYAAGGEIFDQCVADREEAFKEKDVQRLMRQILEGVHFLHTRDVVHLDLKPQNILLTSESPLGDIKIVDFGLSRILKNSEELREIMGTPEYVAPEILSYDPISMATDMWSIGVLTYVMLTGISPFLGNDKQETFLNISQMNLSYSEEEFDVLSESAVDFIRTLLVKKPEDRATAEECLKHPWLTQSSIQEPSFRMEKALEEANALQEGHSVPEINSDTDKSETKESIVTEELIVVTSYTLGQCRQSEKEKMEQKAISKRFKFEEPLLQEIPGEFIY

CN(C)CC#Cc1ccc(OCCCc2sc(N3CCc4cccc(C(=O)Nc5nc6ccccc6s5)c4C3)nc2C(=O)O)c(F)c1 [A-1155463]
inactive: residual activity [1] 85% | residual activity [2] 100% | residual activity [3] 87% | residual activity [4] 90% | residual activity [5] 90% | residual activity [6] 100% | inhibition [7] -3.48% | residual activity [8] 98% | residual activity [9] 100% | residual activity [10] 100% | residual activity [11] 100% | residual activity [12] 100% | residual activity [13] 100% | residual activity [14] 84% | residual activity [15] 100% | residual activity [16] 100% | residual activity [17] 75% | residual activity [18] 84% | residual activity [19] 94% | residual activity [20] 91% | residual activity [21] 96% | residual activity [22] 100% | residual activity [23] 100% | residual activity [24] 94% | residual activity [25] 69% | residual activity [26] 96% | residual activity [27] 100% | residual activity [28] 93% | residual activity [29] 90% | residual activity [30] 100% | residual activity [31] 100% | residual activity [32] 92% | residual activity [33] 90% | residual activity [34] 100% | residual activity [35] 100% | residual activity [36] 100% | residual activity [37] 100% | residual activity [38] 74% | inhibition [39] 10.8% | residual activity [40] 100% | residual activity [41] 100% | residual activity [42] 86% | residual activity [43] 96% | residual activity [44] 98% | residual activity [45] 100%
